Laboratory results: PubChem BioAssay (NCI)
Values joined by “and” are separate entries in the source; they are usually repeats but may differ in a detail not shown here. Equal values may be shown once.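 Interpolation was linear, between the two tested concentrations surrounding the appropriate level; five concentrations were tested over 48 hours in 96-well plates. Here, GI50 denotes the concentration required for 50% inhibition of growth. The concentration for full growth arrest is given as TGI.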

Assays:
Assay in all cases: NCI-60 cell line screen, 48 h
M19-MEL melanoma = test system: M19-MEL melanoma
DMS 273 small cell lung = test system: DMS 273 small cell lung
LXFL 529 NSCLC = test system: LXFL 529 NSCLC
RXF-631 renal = test system: RXF-631 renal
DU-145 prostate = test system: DU-145 prostate
MDA-MB-435 = test system: MDA-MB-435
MCF7 breast = test system: MCF7 breast
MDA-N = test system: MDA-N

| SMILES | TGI (M19-MEL melanoma) | TGI (DMS 273 small cell lung) [µM] | TGI (LXFL 529 NSCLC) | TGI (RXF-631 renal) | TGI (DU-145 prostate) [µM] | GI50 (MDA-MB-435) [µM] | TGI (MDA-MB-435) [µM] | TGI (MCF7 breast) [µM] | GI50 (MDA-N) [µM] | TGI (MDA-N) [µM] | GI50 (M19-MEL melanoma) [µM] | GI50 (LXFL 529 NSCLC) [µM] | GI50 (RXF-631 renal) [µM] |
| --- | --- | --- | --- | --- | --- | --- | --- | --- | --- | --- | --- | --- | --- |
| O=[N+]([O-])c1cccnc1S(=O)(=O)c1ccccc1 | 27.3 µM | 21.3 | 5.87 µM | 8.01 µM |  |  |  |  |  |  |  |  |  |
| COc1ccc(/C=C/C(=O)c2c(-c3ccccc3)nn(C)c(=O)c2N2CCCCC2)cc1 | 79.3 µM | > 100 | 98.8 µM | > 100 µM |  |  |  |  |  |  |  |  |  |
| CNC(=O)OCc1nc(SSc2nc(COC(=O)NC)c(COC(=O)NC)n2C)n(C)c1COC(=O)NC | > 100 µM | > 100 | > 100 µM | > 100 µM |  |  |  |  |  |  |  |  |  |
| Cc1ccc(-n2c3nc(=O)n(C)c(=O)c-3nc3ccccc32)c(C)c1 | 3.33 µM | 18.5 | 24.8 µM | 23.9 µM |  |  |  |  |  |  |  |  |  |
| C[n+]1cn(CC(=O)c2ccccc2)c(C(N)=O)c1N | 63.2 µM | > 100 | > 100 µM | > 100 µM |  |  |  |  |  |  |  |  |  |
| C/C(=N\NC(=S)N1CCC1)c1ccccn1 | > 100 µM | 1.82 | > 100 µM | > 64.6 µM | > 100 | 0.357 | 73.7 | 0.00635 | 0.476 | > 100 |  |  |  |
| CCCCCCCCCCCCCC(=O)O[C@H]1CC[C@H](NC(=O)[C@H](OC)[C@H](O)[C@@H](O)[C@H](O)/C=C/C(C)C)C(=O)N(C)C1 | 15 µM and 3.89 µM | 0.00403 | 15 µM and 3.94 µM | 15 µM and 4.07 µM |  |  |  |  |  |  | 0.00238 | 0.00238 | 0.00238 |
| CCCC(O)[C@@]1(CC)CC(C)C(O)(C2(C)C[C@H](C)[C@@H](C(CC)C(=O)C(C)[C@@H](O)[C@H](C)C3OC(O)(C(CC)C(=O)O)[C@@H](C)C(O)C3CC)O2)O1 (stereo partly drawn) | 2.17 µM | 5.93 | 3.91 µM | 1.93 µM | 1.31 |  | 1.2 | 2.17 |  | 1.86 |  |  |  |
| O=C([O-])c1ccc([I+]c2ccccc2)cc1 | > 100 µM | > 100 | > 100 µM | > 100 µM |  |  |  |  |  |  |  |  |  |
| Cc1nc2ccncc2[nH]1 | > 100 µM | > 100 | > 100 µM | > 100 µM |  |  |  |  |  |  |  |  |  |
| O=C1OC(=O)c2c1nc1ccccc1c2-c1ccccc1 | > 100 µM | > 100 | > 100 µM | > 100 µM |  |  |  |  |  |  |  |  |  |
| COS(=O)c1cc(Cl)cc(Cl)c1OC(=O)CSSCC(=O)Oc1c(Cl)cc(Cl)cc1S(=O)OC (stereo not drawn) | 57.7 µM | 32.7 | 47.6 µM | 63.7 µM |  |  |  |  |  |  |  |  |  |
| C=C1C(=O)O[C@@H]2C[C@@]3(C)[C@H](O)CCC(=C)[C@@H]3C[C@H]12 | 32.9 µM | 27.4 | 12.8 µM | 28.1 µM |  |  |  |  |  |  |  |  |  |
| CCCCCCCCCCCCCCCC(=O)OCC1OC(n2cc(F)c(=O)[nH]c2=O)C(NC(=O)OCc2ccccc2)C(O)C1O (stereo not drawn) | 40.5 µM | 32.4 | 31.5 µM | 34.9 µM |  |  |  |  |  |  |  |  |  |
| OC1=CN=C(c2ccccc2)Oc2ccccc21 | > 100 µM | > 100 | > 100 µM | > 100 µM |  |  |  |  |  |  |  |  |  |
